Assay results reported in the NIST ThermoML archive (doi:10.1016/j.jct.2004.07.031).
Numbers after ± are expanded uncertainties.

Settings: 298.15 K; 101.33 kPa; Crystal; PPMS instrument (Quantum Design)

molar entropy [J/K/mol]	SMILES
124.57 ± 5.6	O=P([O-])([O-])[O-].[Gd+3] [gadolinium orthophosphate]
108.24 ± 4.9	O=P([O-])([O-])[O-].[La+3] [lanthanum orthophosphate]
